The results in this text go back to patent US12479804B2, “Herbicidal compounds” (SYNGENTA CROP PROTECTION AG, priority 2019, dated 2025).

One assay concerns Echinochloa crus-galli (ECHCG). Put plainly: Glasshouse herbicidal test, pre- and post-emergence, percentage damage to the plant. In kind it is in vivo. Particulars: post-emergence, 250 g/h, evaluated after 13 days. How it is done:
(§1) Seeds of a variety of test species are sown in standard soil in pots (Lolium perenne (LOLPE), Setaria faberi (SETFA), Alopecurus myosuroides (ALOMY), Echinochloa crus-galli (ECHCG), Avena fatua (AVEFA)). After cultivation for one day (pre-emergence) or after 8 days cultivation (post-emergence) under controlled conditions in a glasshouse (at 24/16° C., day/night; 14 hours light; 65% humidity), the plants are sprayed with an aqueous spray solution derived from the formulation of the technical active ingredient in acetone/water (50:50) solution containing 0.5% Tween 20 (polyoxyethelyene sorbitan monolaurate, CAS RN 9005-64-5). Compounds are applied at 250 g/h. The test plants are then grown in a glasshouse under controlled conditions in a glasshouse (at 24/16° C., day/night; 14 hours light; 65% humidity) and watered twice daily. After 13 days for pre and post-emergence, the test is evaluated for the percentage damage caused to the plant. The biological activities are shown in the following table on a five-point scale (5=80-100%; 4=60-79%; 3=40-59%; 2=20-39%; 1=0-19%).
As for `CC#Cc1cc(C)c(C2C(=O)CC3(CCC(=O)N(CC(=O)OC)C3)CC2=O)c(C)c1` (stereo not shown) [Compound A12], the “ECHCG POST percentage damage caused to the plant (five-point scale)” value (“ECHCG POST percentage damage caused” for short) is recorded as 5 (5=80-100%).

As to `CC#Cc1cc(C)c(C2C(=O)CC3(CCN4C(=O)CCCC4C3)CC2=O)c(C)c1` (stereo not shown) [Compound A13], the “ECHCG POST percentage damage caused” value is listed as 5 (5=80-100%).

With `CC#Cc1cc(C)c(C2C(=O)CC3(CCN4C(=O)CCC4C3)CC2=O)c(C)c1` (stereo not shown) [Compound A14], the “ECHCG POST percentage damage caused” value was 5 (5=80-100%).

Take `CC#Cc1cc(C)c(C2C(=O)CC3(C=CN(C(=O)COC)CC3)CC2=O)c(C)c1` (stereo not shown) [Compound A15]: the “ECHCG POST percentage damage caused” value is given as 5 (5=80-100%).

Still in this assay, the particulars now being: pre-emergence, 250 g/h, evaluated after 13 days.
As for `CC#Cc1cc(C)c(C2C(=O)CC3(CCC(=O)N(CC(=O)OC)C3)CC2=O)c(C)c1` (stereo not shown) [Compound A12], the “ECHCG PRE percentage damage caused to the plant (five-point scale)” value (shortened to “ECHCG PRE percentage damage caused”) is given as 5 (5=80-100%).

As to `CC#Cc1cc(C)c(C2C(=O)CC3(CCN4C(=O)CCCC4C3)CC2=O)c(C)c1` (stereo not shown) [Compound A13], the “ECHCG PRE percentage damage caused” value is on record as 5 (5=80-100%).

For `CC#Cc1cc(C)c(C2C(=O)CC3(CCN4C(=O)CCC4C3)CC2=O)c(C)c1` (stereo not shown) [Compound A14], the “ECHCG PRE percentage damage caused” value is recorded as 5 (5=80-100%).

In the case of `CC#Cc1cc(C)c(C2C(=O)CC3(C=CN(C(=O)COC)CC3)CC2=O)c(C)c1` (stereo not shown) [Compound A15], the “ECHCG PRE percentage damage caused” value is 5 (5=80-100%).

The subject of a further assay is Alopecurus myosuroides (ALOMY). Described as above. The note with it: post-emergence, 250 g/h, evaluated after 13 days. The class given is in vivo. The protocol: as §1
In the case of `CC#Cc1cc(C)c(C2C(=O)CC3(CCC(=O)N(CC(=O)OC)C3)CC2=O)c(C)c1` (stereo not shown) [Compound A12], the “ALOMY POST percentage damage caused to the plant (five-point scale)” value (shortened to “ALOMY POST percentage damage caused”) was 2 (2=20-39%).

On to `CC#Cc1cc(C)c(C2C(=O)CC3(CCN4C(=O)CCCC4C3)CC2=O)c(C)c1` (stereo not shown) [Compound A13], for which the “ALOMY POST percentage damage caused” value is given as 5 (5=80-100%).

`CC#Cc1cc(C)c(C2C(=O)CC3(CCN4C(=O)CCC4C3)CC2=O)c(C)c1` (stereo not shown) [Compound A14]: the “ALOMY POST percentage damage caused” value is 5 (5=80-100%).

On to `CC#Cc1cc(C)c(C2C(=O)CC3(C=CN(C(=O)COC)CC3)CC2=O)c(C)c1` (stereo not shown) [Compound A15], for which the “ALOMY POST percentage damage caused” value is on record as 5 (5=80-100%).

The assay is the same for the next values; noted with them: pre-emergence, 250 g/h, evaluated after 13 days.
`CC#Cc1cc(C)c(C2C(=O)CC3(CCC(=O)N(CC(=O)OC)C3)CC2=O)c(C)c1` (stereo not shown) [Compound A12]: the “ALOMY PRE percentage damage caused to the plant (five-point scale)” value (“ALOMY PRE percentage damage caused” below) is 5 (5=80-100%).

For the molecule `CC#Cc1cc(C)c(C2C(=O)CC3(CCN4C(=O)CCCC4C3)CC2=O)c(C)c1` (stereo not shown) [Compound A13], the “ALOMY PRE percentage damage caused” value is 5 (5=80-100%).

On to `CC#Cc1cc(C)c(C2C(=O)CC3(CCN4C(=O)CCC4C3)CC2=O)c(C)c1` (stereo not shown) [Compound A14], for which the “ALOMY PRE percentage damage caused” value is on record as 5 (5=80-100%).

On to `CC#Cc1cc(C)c(C2C(=O)CC3(C=CN(C(=O)COC)CC3)CC2=O)c(C)c1` (stereo not shown) [Compound A15], for which the “ALOMY PRE percentage damage caused” value is on record as 5 (5=80-100%).

A further assay relates to Lolium perenne (LOLPE). The description is as above. In kind it is in vivo. The note with it: post-emergence, 250 g/h, evaluated after 13 days. How it is done: as §1
For the molecule `CC#Cc1cc(C)c(C2C(=O)CC3(CCC(=O)N(CC(=O)OC)C3)CC2=O)c(C)c1` (stereo not shown) [Compound A12], the “LOLPE POST percentage damage caused to the plant (five-point scale)” value (“LOLPE POST percentage damage caused” for short) is on record as 5 (5=80-100%).

Take `CC#Cc1cc(C)c(C2C(=O)CC3(CCN4C(=O)CCCC4C3)CC2=O)c(C)c1` (stereo not shown) [Compound A13]: the “LOLPE POST percentage damage caused” value is given as 5 (5=80-100%).

`CC#Cc1cc(C)c(C2C(=O)CC3(CCN4C(=O)CCC4C3)CC2=O)c(C)c1` (stereo not shown) [Compound A14]: the “LOLPE POST percentage damage caused” value was 5 (5=80-100%).

`CC#Cc1cc(C)c(C2C(=O)CC3(C=CN(C(=O)COC)CC3)CC2=O)c(C)c1` (stereo not shown) [Compound A15]: the “LOLPE POST percentage damage caused” value is given as 5 (5=80-100%).

The assay is the same for the next values; noted with them: pre-emergence, 250 g/h, evaluated after 13 days.
Take `CC#Cc1cc(C)c(C2C(=O)CC3(CCC(=O)N(CC(=O)OC)C3)CC2=O)c(C)c1` (stereo not shown) [Compound A12]: the “LOLPE PRE percentage damage caused to the plant (five-point scale)” value (shortened to “LOLPE PRE percentage damage caused”) is listed as 5 (5=80-100%).

Take `CC#Cc1cc(C)c(C2C(=O)CC3(CCN4C(=O)CCCC4C3)CC2=O)c(C)c1` (stereo not shown) [Compound A13]: the “LOLPE PRE percentage damage caused” value is on record as 5 (5=80-100%).

Turning to `CC#Cc1cc(C)c(C2C(=O)CC3(CCN4C(=O)CCC4C3)CC2=O)c(C)c1` (stereo not shown) [Compound A14], the “LOLPE PRE percentage damage caused” value is listed as 5 (5=80-100%).

Turning to `CC#Cc1cc(C)c(C2C(=O)CC3(C=CN(C(=O)COC)CC3)CC2=O)c(C)c1` (stereo not shown) [Compound A15], the “LOLPE PRE percentage damage caused” value was 5 (5=80-100%).

In another assay the test system is Avena fatua (AVEFA). The assay is described as above. The note with it: post-emergence, 250 g/h, evaluated after 13 days. In kind it is in vivo. How it is done:
as §1
Turning to `CC#Cc1cc(C)c(C2C(=O)CC3(CCC(=O)N(CC(=O)OC)C3)CC2=O)c(C)c1` (stereo not shown) [Compound A12], the “AVEFA POST percentage damage caused to the plant (five-point scale)” value (shortened to “AVEFA POST percentage damage caused”) was 5 (5=80-100%).

Take `CC#Cc1cc(C)c(C2C(=O)CC3(CCN4C(=O)CCCC4C3)CC2=O)c(C)c1` (stereo not shown) [Compound A13]: the “AVEFA POST percentage damage caused” value is reported as 5 (5=80-100%).

As to `CC#Cc1cc(C)c(C2C(=O)CC3(CCN4C(=O)CCC4C3)CC2=O)c(C)c1` (stereo not shown) [Compound A14], the “AVEFA POST percentage damage caused” value is 5 (5=80-100%).

In the case of `CC#Cc1cc(C)c(C2C(=O)CC3(C=CN(C(=O)COC)CC3)CC2=O)c(C)c1` (stereo not shown) [Compound A15], the “AVEFA POST percentage damage caused” value is 5 (5=80-100%).

The same assay, now with this note: pre-emergence, 250 g/h, evaluated after 13 days.
As for `CC#Cc1cc(C)c(C2C(=O)CC3(CCC(=O)N(CC(=O)OC)C3)CC2=O)c(C)c1` (stereo not shown) [Compound A12], the “AVEFA PRE percentage damage caused to the plant (five-point scale)” value (“AVEFA PRE percentage damage caused” below) was 3 (3=40-59%).

As to `CC#Cc1cc(C)c(C2C(=O)CC3(CCN4C(=O)CCCC4C3)CC2=O)c(C)c1` (stereo not shown) [Compound A13], the “AVEFA PRE percentage damage caused” value is given as 5 (5=80-100%).

As for `CC#Cc1cc(C)c(C2C(=O)CC3(CCN4C(=O)CCC4C3)CC2=O)c(C)c1` (stereo not shown) [Compound A14], the “AVEFA PRE percentage damage caused” value was 5 (5=80-100%).

`CC#Cc1cc(C)c(C2C(=O)CC3(C=CN(C(=O)COC)CC3)CC2=O)c(C)c1` (stereo not shown) [Compound A15]: the “AVEFA PRE percentage damage caused” value is listed as 5 (5=80-100%).

Another assay concerns Setaria faberi (SETFA). Described as above. The class given is in vivo. Particulars: post-emergence, 250 g/h, evaluated after 13 days. How it is done: as §1
Turning to `CC#Cc1cc(C)c(C2C(=O)CC3(CCC(=O)N(CC(=O)OC)C3)CC2=O)c(C)c1` (stereo not shown) [Compound A12], the “SETFA POST percentage damage caused to the plant (five-point scale)” value (“SETFA POST percentage damage caused” for short) is given as 5 (5=80-100%).

As to `CC#Cc1cc(C)c(C2C(=O)CC3(CCN4C(=O)CCCC4C3)CC2=O)c(C)c1` (stereo not shown) [Compound A13], the “SETFA POST percentage damage caused” value was 5 (5=80-100%).

With `CC#Cc1cc(C)c(C2C(=O)CC3(CCN4C(=O)CCC4C3)CC2=O)c(C)c1` (stereo not shown) [Compound A14], the “SETFA POST percentage damage caused” value is given as 5 (5=80-100%).

Turning to `CC#Cc1cc(C)c(C2C(=O)CC3(C=CN(C(=O)COC)CC3)CC2=O)c(C)c1` (stereo not shown) [Compound A15], the “SETFA POST percentage damage caused” value is 5 (5=80-100%).

The assay is the same for the next values; noted with them: pre-emergence, 250 g/h, evaluated after 13 days.
On to `CC#Cc1cc(C)c(C2C(=O)CC3(CCC(=O)N(CC(=O)OC)C3)CC2=O)c(C)c1` (stereo not shown) [Compound A12], for which the “SETFA PRE percentage damage caused to the plant (five-point scale)” value (shortened to “SETFA PRE percentage damage caused”) is listed as 5 (5=80-100%).

For `CC#Cc1cc(C)c(C2C(=O)CC3(CCN4C(=O)CCCC4C3)CC2=O)c(C)c1` (stereo not shown) [Compound A13], the “SETFA PRE percentage damage caused” value is on record as 5 (5=80-100%).

Turning to `CC#Cc1cc(C)c(C2C(=O)CC3(CCN4C(=O)CCC4C3)CC2=O)c(C)c1` (stereo not shown) [Compound A14], the “SETFA PRE percentage damage caused” value is 5 (5=80-100%).

Turning to `CC#Cc1cc(C)c(C2C(=O)CC3(C=CN(C(=O)COC)CC3)CC2=O)c(C)c1` (stereo not shown) [Compound A15], the “SETFA PRE percentage damage caused” value is listed as 5 (5=80-100%).
